Assays:
B. subtilis 168 pNK-MrgA = test: Lux-biosensor, hydrogen peroxide (PmrgA); assay type: cell-based, Bacillus subtilis; conditions: compounds 1 μM to 1 mM; Standard = hydrogen peroxide 100 μM
Procedure: The study was carried out with use of the following whole-cell bacterial biosensors: Escherichia coli MG1655 pOxyR-lux, E. coli MG1655 pDps, E. coli MG1655 pSoxS-lux, E. coli MG1655 pColD-lux, E. coli MG1655 pAlkA-lux, E. coli MG1655 pXen7, Bacillus subtilis 168 pNK-AlkA, B. subtilis 168 pNK-MrgA and B. subtilis 168 pNK-DinC. These biosensors by the quantitation of bacterial stress promoters’ activity, make it possible to determine oxidative stress caused by hydrogen peroxide and the superoxide anion radical, SOS response, DNA alkylation, or general toxicity in Gram-positive and Gram-negative B. subtilis and E. coli cells. We used concentrations from 1 μM to 1 mM of the studied compounds added to the suspension of biosensor cells. […]
The bioluminescence of cells was measured using a Synergy HT luminometer (Biotek, Winooski, VT, USA) at room temperature. Lux biosensors based on E. coli were grown to an early logarithmic phase (OD ≈ 0.1) to achieve a background luminescence approximately 100–1000 RLU at the beginning of the measurements. Lux biosensors based on B. subtilis were grown to a logarithmic phase with an optical density OD ≈ 0.6 (and background luminescence of about 10–500 RLU). […] The kinetics of change in luminescence was measured at room temperature. […]

[1] = tested on: human neuroblastoma cells (SH-SY5Y); test: MTT test on neuroblastoma cells; assay type: cell-based; conditions: 72 h, read-out: EC50 ± SEM, SH-SY5Y
Procedure: For compounds with evident anti-inflammatory activity (4a and 5b) and one outgroup compound (4g), MTT tests with the human fibroblast cells (MRC-5) and human neuroblastoma cells (SH-SY5Y) were carried out. The studied compounds were added in concentrations of 1, 3, 6, 12, 25, 50, and 100 μM.
The MTT test to determine the effect of cell viability was performed on the SH-SY5Y neuroblastoma cell line in a 96-well plate.
Cells grown to 80% confluence were trypsinized and plated at a density of 5000 cells per well (100 µL total well volume) and incubated overnight in a CO2 incubator. The next day, a 50 mM stock of studied compounds in DMSO was diluted in DMEM and added in the amount of 50 μL per well to obtain final concentrations of 1–100 μM. […] After that, the supernatant was discarded, 100 μL of DMSO was added and, after the dissolution of the formazan crystals, the absorbance at 570 nm was measured on a Synergy HT plate reader (Biotek, Winooski, VT, USA). […]
All experiments with SH-SY5Y, E. coli and B. subtilis cell cultures were performed in 3 independent repetitions. The error in the luminescence measurements was calculated using the standard deviation equation based on 3 repeats, its values on the graphs are shown with error bars. EC50 concentrations were determined using Combenefit software.

| Structure (SMILES) | max(Kind), B. subtilis 168 pNK-MrgA (B. subtilis 168 pNK-MrgA) | EC50 [1] [µM] |
| --- | --- | --- |
| [Se]=C(Nc1ccccc1)NC12CC3CC(CC(C3)C1)C2 [4a, 1-(Adamantan-1-yl)-3-phenylselenourea] | 1.2 ± 0.5 | 16.5 ± 1.5 |
| [Se]=C(Nc1ccccc1)NC1C2CC3CC(C2)CC1C3 (stereo not shown) [4g, 1-(Adamantan-2-yl)-3-phenylselenourea] | 1.2 ± 0.3 | 8.6 ± 0.9 |

From paper PMC9501280, “Anti-Inflammatory Activity of Soluble Epoxide Hydrolase Inhibitors Based on Selenoureas Bearing an Adamantane Moiety” (International Journal of Molecular Sciences, 2022)
